According to ChEMBL document CHEMBL3217743, “Reduction of acyl glucuronidation in a series of acidic 11-hydroxysteroid dehydrogenase type 1 (11-HSD1) inhibitors: the discovery of AZD6925” (Medchemcomm, 2012):
Active and inactive are the calls of the source. The calls are words filed in the database; no cut-off is given here.

Key:
[1] = Volume of distribution at steady state in mouse at 1 to 3 mg/kg; assay type: ADME, organism-based; set-up: dose 1-3 mg/kg; conditions: in vivo, read-out: Vdss
[2] = target: CYP2C9 (Homo sapiens, UniProt P11712); assay: Inhibition of CYP2C9 (unknown origin) at 10 uM relative to control; assay type: ADME
Chain of CYP2C9 (P11712 whole entry): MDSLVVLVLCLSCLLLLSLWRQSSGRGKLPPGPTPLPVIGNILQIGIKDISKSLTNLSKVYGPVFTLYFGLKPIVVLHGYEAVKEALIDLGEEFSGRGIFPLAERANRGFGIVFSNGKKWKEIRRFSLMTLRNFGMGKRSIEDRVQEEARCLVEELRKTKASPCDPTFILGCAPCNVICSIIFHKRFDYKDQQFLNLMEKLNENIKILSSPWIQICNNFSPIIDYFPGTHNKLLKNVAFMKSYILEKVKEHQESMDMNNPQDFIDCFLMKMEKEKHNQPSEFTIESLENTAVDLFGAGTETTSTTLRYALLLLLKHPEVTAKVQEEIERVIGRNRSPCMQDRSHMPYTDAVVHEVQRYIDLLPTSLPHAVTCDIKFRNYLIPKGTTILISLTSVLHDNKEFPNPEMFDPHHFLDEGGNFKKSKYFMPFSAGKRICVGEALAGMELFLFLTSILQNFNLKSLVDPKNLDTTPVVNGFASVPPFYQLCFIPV

[3] = test system: L5178Y; assay: Mutagenicity in mouse L5178Y cells by mouse lymphoma assay; assay type: toxicity, cell-based
[4] = test system: Mus musculus; assay: Ex vivo inhibition of 11beta-HSD1-mediated conversion of [3H]-cortisone to [3H]-cortisol in C57Bl6J mouse liver at 30 mg/kg, po by scintillation counting analysis; assay type: functional, organism-based; set-up: dose 30 mg/kg
[5] = Fraction unbound in rat plasma by equilibrium dialysis technique; assay type: ADME, cell-free
[6] = Plasma clearance in dog at 1 to 3 mg/kg; assay type: ADME, organism-based, Canis lupus familiaris; set-up: dose 1-3 mg/kg
[7] = Drug excretion in bile duct cannulated rat urine assessed as compound remaining by HPLC analysis; assay type: ADME, tissue-based; conditions: read-out: Stability
[8] = Half life in mouse at 1 to 3 mg/kg, po; assay type: ADME, organism-based; set-up: dose 1-3 mg/kg, route oral; conditions: in vivo
[9] = target: T1, Mineralocorticoid receptor (Homo sapiens) (UniProt P08235); assay: Activity at mineralocorticoid receptor (unknown origin)
T1 sequence (whole entry): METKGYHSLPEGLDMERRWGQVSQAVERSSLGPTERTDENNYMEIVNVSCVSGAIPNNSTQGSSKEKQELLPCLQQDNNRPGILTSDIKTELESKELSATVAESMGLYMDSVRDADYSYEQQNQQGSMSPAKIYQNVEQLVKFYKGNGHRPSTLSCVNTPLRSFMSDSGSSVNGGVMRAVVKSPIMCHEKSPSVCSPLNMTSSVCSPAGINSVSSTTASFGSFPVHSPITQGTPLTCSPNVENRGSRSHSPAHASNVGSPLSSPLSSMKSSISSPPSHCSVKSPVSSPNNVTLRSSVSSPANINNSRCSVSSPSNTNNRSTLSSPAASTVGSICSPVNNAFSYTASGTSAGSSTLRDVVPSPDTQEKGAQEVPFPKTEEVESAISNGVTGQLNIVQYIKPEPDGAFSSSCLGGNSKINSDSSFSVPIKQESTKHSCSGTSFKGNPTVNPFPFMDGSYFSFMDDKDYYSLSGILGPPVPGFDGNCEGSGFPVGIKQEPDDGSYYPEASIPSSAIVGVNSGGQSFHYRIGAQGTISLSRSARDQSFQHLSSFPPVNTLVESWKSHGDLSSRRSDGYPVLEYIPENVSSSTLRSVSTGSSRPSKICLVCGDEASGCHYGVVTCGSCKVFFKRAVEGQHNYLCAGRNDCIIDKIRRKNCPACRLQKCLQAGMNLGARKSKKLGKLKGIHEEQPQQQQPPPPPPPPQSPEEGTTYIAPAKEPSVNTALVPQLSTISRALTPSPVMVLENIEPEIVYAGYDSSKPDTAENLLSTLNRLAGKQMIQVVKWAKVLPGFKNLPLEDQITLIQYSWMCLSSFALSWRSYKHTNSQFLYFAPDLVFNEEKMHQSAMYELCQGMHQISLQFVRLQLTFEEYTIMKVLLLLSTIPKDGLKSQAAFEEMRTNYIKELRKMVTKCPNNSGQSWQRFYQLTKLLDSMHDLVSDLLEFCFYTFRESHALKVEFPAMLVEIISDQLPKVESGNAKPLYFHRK

[10] = Apparent permeability from basolateral to apical side in MDCK cells at 10 uM; assay type: ADME, cell-based, Canis lupus familiaris; conditions: dog
[11] = Fraction unbound in mouse plasma by equilibrium dialysis technique; assay type: ADME, cell-free
[12] = target: T2, 17-beta-hydroxysteroid dehydrogenase type 1 (Homo sapiens) (UniProt P14061); assay: Inhibition of recombinant 17beta-HSD1 (unknown origin) assessed as conversion of estrone to estradiol at 10 uM after 20 mins by scintillation counting analysis relative to control
T2 sequence (whole entry): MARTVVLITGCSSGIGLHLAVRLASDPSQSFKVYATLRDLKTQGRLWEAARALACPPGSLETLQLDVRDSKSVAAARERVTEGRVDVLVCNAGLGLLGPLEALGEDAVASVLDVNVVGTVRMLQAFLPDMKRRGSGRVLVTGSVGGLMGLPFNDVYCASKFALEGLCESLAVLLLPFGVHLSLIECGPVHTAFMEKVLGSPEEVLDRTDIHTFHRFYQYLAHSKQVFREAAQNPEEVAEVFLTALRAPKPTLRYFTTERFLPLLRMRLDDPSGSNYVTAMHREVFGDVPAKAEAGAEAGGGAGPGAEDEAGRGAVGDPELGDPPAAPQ

[13] = target: Phosphodiesterase 4 (Homo sapiens, UniProt P27815+Q08499+Q07343+Q08493); assay: Inhibition of PDE4 (unknown origin); assay type: protein assay
[14] = Clearance in rat; assay type: ADME, organism-based; conditions: in vivo
[15] = target: T3, CYP1A2 (Homo sapiens, UniProt P05177); assay: Inhibition of CYP1A2 (unknown origin) at 10 uM relative to control; assay type: ADME
T3 sequence (P05177 whole entry): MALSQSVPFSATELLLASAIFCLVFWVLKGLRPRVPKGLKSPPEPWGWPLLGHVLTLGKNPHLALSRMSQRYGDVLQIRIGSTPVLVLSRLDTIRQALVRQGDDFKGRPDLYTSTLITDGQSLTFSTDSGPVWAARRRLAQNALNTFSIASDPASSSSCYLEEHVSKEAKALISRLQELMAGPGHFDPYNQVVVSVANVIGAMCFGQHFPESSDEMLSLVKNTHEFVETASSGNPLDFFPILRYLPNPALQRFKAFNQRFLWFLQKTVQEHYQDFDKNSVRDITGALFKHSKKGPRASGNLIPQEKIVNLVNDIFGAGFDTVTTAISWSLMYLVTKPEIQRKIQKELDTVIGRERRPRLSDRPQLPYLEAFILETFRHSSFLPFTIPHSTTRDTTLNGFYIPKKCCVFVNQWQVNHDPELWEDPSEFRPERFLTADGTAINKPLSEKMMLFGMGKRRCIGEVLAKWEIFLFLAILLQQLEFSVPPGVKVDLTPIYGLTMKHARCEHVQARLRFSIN

[16] = Plasma clearance in rat at 1 to 3 mg/kg; assay type: ADME, organism-based; set-up: dose 1-3 mg/kg
[17] = Volume of distribution at steady state in rat at 1 to 3 mg/kg; assay type: ADME, organism-based; set-up: dose 1-3 mg/kg; conditions: in vivo, read-out: Vdss
[18] = Inhibition of N-terminal 6-His-tagged cynomolgus monkey full length 11beta-HSD1 assessed as conversion of cortisone to cortisol after 25 mins by HTRF assay; set-up: species or system Macaca fascicularis
[19] = target: CYP2D6 (Homo sapiens, UniProt P10635); assay: Inhibition of CYP2D6 (unknown origin) at 10 uM relative to control; assay type: ADME
Chain of CYP2D6 (P10635 whole entry): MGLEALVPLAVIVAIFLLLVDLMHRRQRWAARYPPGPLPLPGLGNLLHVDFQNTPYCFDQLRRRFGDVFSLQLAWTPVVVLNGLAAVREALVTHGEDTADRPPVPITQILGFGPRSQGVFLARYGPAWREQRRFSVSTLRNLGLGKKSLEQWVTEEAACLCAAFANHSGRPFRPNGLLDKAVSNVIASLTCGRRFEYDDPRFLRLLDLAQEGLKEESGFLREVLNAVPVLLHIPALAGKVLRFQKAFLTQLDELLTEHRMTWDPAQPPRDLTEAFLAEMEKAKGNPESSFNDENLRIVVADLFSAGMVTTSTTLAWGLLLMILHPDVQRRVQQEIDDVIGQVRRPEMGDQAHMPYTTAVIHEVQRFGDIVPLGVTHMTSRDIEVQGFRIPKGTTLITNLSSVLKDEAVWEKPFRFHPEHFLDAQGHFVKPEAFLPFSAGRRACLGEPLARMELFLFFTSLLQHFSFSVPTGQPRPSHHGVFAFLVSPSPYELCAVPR

[20] = Half life in rat at 1 to 3 mg/kg, po; assay type: ADME, organism-based; set-up: dose 1-3 mg/kg, route oral; conditions: in vivo
[21] = Plasma clearance in mouse at 1 to 3 mg/kg; assay type: ADME, organism-based; set-up: dose 1-3 mg/kg
[22] = Apparent permeability from apical to basolateral side in MDCK cells at 10 uM; assay type: ADME, cell-based, Canis lupus familiaris; conditions: dog
[23] = target: CYP2C19 (Homo sapiens, UniProt P33261); assay: Inhibition of CYP2C19 (unknown origin) at 10 uM relative to control; assay type: ADME
Chain of CYP2C19 (P33261 whole entry): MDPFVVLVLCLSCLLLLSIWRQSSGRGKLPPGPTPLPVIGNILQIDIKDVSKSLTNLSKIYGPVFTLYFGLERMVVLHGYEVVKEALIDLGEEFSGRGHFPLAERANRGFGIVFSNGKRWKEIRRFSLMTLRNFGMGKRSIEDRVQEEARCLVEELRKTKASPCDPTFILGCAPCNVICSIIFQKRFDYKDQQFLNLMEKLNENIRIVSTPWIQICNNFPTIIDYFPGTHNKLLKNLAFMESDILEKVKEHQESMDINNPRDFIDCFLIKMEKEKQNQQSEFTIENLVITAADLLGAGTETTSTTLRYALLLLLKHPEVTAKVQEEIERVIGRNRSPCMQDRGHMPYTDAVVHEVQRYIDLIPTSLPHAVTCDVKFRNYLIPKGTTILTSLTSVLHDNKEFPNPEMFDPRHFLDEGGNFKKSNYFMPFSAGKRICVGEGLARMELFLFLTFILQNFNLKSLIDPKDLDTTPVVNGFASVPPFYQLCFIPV

Vd [1]: 1.2 L/kg
inhibition at 10 µM [2]: < 25%
fraction unbound [5]: 0.017
clearance [6]: 1 mL/min/kg
dose excreted [7]: 7.6%
half-life [8]: 2.5 h
Activity [9]: inactive
Papp B→A at 10 µM [10]: 13 ×10⁻⁶ cm/s
fraction unbound [11]: 0.023
inhibition [12]: 20%
IC50 [13]: 30000 nM
clearance [14]: 6 mL/min/kg
inhibition at 10 µM [15]: < 25%
clearance [16]: 6 mL/min/kg
Vd [17]: 0.9 L/kg
IC50 [18]: 20 nM
inhibition at 10 µM [19]: < 25%
half-life [20]: 4.3 h
clearance [21]: 9 mL/min/kg
Papp A→B at 10 µM [22]: 21 ×10⁻⁶ cm/s
inhibition at 10 µM [23]: < 25%
Structure (SMILES): CSc1nc(N2C[C@@H]3[C@H](C2)[C@H]3C(=O)O)ccc1C(=O)NC12CC3CC(CC(C3)C1)C2
Activity [3]: Non-toxic
inhibition [4]: Active
